Results: ChEMBL document CHEMBL5046241, “The novel therapeutic strategy of vilazodone-donepezil chimeras as potent triple-target ligands for the potential treatment of Alzheimer's disease with comorbid depression” (Eur J Med Chem, 2022)

What was measured:
[1] = biological target: Cholinesterase (Mus musculus, UniProt Q03311)
Description: Inhibition of BuChE in mouse serum using butyrylthiocholine iodide as substrate incubated for 20 mins by Ellman's method

[2] = biological target: Sodium-dependent serotonin transporter (Homo sapiens, UniProt P31645); assay type: cell-based, HEK293
[3] = biological target: T1, Acetylcholinesterase (Mus musculus, UniProt P21836); experiment: biochemical
T1 sequence (P21836 whole entry): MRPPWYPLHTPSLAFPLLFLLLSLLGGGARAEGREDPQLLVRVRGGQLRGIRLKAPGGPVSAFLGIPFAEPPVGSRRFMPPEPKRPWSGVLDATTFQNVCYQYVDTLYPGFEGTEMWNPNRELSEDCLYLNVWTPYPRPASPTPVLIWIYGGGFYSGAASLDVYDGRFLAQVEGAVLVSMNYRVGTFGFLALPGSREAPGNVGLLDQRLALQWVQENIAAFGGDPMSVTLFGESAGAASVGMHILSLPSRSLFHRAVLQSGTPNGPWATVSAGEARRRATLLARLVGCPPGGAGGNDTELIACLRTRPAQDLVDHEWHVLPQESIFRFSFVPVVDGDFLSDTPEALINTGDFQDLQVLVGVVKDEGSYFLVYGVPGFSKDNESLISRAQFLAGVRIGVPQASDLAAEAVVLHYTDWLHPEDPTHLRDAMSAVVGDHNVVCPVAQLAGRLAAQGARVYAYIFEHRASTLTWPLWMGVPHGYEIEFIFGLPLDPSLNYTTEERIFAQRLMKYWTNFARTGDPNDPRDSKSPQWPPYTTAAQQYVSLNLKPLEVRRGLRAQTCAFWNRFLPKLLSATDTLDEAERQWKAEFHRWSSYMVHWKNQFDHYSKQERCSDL
Description: Inhibition of AChE in mouse cortical homogenate using acetylthiocholine iodide as substrate incubated for 20 mins by Ellman's method

[4] = biological target: T2, 5-hydroxytryptamine receptor 1A (Homo sapiens, UniProt P08908)
T2 sequence (P08908 whole entry): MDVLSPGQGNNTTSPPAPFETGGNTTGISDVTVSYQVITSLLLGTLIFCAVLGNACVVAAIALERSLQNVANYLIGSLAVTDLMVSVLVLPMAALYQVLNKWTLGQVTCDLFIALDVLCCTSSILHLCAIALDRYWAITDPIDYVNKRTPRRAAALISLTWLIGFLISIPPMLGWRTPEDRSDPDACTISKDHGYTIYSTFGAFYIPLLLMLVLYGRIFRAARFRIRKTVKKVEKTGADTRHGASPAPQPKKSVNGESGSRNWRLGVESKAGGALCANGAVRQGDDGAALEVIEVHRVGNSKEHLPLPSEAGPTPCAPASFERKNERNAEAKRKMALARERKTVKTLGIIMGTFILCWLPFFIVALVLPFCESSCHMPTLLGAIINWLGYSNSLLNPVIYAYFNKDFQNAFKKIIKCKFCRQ
Description: Agonist activity at human 5-HT1A receptor expressed in HEK293 cells incubated for 60 mins by Eu-cAMP tracer based LANCE ultra cAMP assay

[5] = in vitro; details: PAMPA
Description: Permeability of compound by PAMPA-BBB assay

Sequence of Cholinesterase (Q03311 whole entry): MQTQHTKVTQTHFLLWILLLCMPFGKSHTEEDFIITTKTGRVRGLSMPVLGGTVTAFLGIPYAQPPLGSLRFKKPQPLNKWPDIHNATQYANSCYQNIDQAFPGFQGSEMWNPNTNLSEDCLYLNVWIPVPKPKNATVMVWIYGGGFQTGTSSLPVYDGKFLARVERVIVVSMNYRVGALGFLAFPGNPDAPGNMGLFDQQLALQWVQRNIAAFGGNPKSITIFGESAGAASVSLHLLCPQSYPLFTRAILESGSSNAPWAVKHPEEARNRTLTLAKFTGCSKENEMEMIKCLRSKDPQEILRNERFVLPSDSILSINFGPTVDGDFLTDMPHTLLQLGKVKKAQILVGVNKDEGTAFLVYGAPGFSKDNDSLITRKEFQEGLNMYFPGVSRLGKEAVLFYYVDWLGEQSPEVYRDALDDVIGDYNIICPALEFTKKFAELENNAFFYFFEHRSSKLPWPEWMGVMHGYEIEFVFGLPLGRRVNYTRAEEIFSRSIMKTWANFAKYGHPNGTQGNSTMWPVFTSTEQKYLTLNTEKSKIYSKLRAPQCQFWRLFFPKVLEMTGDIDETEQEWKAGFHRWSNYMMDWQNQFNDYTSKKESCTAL
Sequence of Sodium-dependent serotonin transporter (P31645 whole entry): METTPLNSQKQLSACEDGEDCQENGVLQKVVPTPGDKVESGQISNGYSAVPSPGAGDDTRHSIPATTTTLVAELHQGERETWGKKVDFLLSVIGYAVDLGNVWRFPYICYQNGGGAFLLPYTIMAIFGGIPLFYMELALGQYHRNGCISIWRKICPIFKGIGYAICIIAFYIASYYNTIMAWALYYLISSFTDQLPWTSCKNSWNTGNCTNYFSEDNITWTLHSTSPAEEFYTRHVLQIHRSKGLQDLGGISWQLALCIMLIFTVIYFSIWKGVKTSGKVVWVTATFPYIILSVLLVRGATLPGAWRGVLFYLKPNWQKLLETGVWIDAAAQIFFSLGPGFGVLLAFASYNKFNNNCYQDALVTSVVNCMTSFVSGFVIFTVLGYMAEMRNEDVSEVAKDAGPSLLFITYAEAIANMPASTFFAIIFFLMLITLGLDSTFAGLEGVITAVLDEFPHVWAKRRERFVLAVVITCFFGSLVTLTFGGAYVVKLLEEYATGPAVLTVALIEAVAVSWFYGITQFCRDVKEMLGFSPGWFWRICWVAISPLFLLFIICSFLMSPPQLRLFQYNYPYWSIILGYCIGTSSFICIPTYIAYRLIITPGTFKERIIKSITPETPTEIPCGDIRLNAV

| SMILES | IC50 [1] [nM] | IC50 [2] [nM] | IC50 [3] [nM] | EC50 [4] [nM] | Papp [5] [×10⁻⁶ cm/s] |
| --- | --- | --- | --- | --- | --- |
| N#Cc1ccc2[nH]cc(CCCCN3CCN(c4ccc5c(c4)CC(CC4CCN(Cc6ccccc6)CC4)C5=O)CC3)c2c1 (stereo not drawn) | 1670 | 36 | 5.84 | – | – |
| N#Cc1ccc2[nH]cc(CCCCN3CCN(c4cccc(C(=O)CCC5CCN(Cc6ccccc6)CC5)c4)CC3)c2c1 | 1000 | – | 37.9 | – | – |
| N#Cc1ccc2[nH]cc(CCCCN3CCN(c4ccc5c(c4)C(=O)C(CC4CCN(Cc6ccccc6)CC4)C5)CC3)c2c1 (stereo not drawn) | 325 | – | 37.4 | – | – |
| N#Cc1ccc2[nH]cc(CCN3CCN(c4ccc(C(=O)CCC5CCN(Cc6ccccc6)CC5)cc4)CC3)c2c1 | 3000 | 32.3 | 5.04 | – | – |
| N#Cc1ccc2[nH]cc(CCN3CCN(c4ccc(C(=O)CCC5CCN(Cc6cccnc6)CC5)cc4)CC3)c2c1 | 6750 | – | 7.7 | 547 | 2.58 |
| N#Cc1ccc2[nH]cc(CCCCN3CCN(c4ccc(C(=O)CCC5CCN(CC6CCCCC6)CC5)cc4)CC3)c2c1 | 2830 | – | 76.5 | – | – |
| N#Cc1ccc2[nH]cc(CCCCN3CCN(c4ccc(C(=O)CCC5CCN(Cc6cccc(Cl)c6)CC5)cc4)CC3)c2c1 | 15300 | – | 27 | 203 | – |
| N#Cc1ccc2[nH]cc(CN3CCN(c4ccc(C(=O)CCC5CCN(Cc6cccnc6)CC5)cc4)CC3)c2c1 | 5850 | – | 9.97 | > 1000 | 2.86 |
| O=C(CCC1CCN(Cc2ccccc2)CC1)c1ccc(N2CCN(CCCCc3c[nH]c4ccccc34)CC2)cc1 | 986 | 285 | 1.51 | – | – |
| N#Cc1ccc2[nH]cc(CCN3CCN(c4ccc5c(c4)CC(CC4CCN(Cc6ccccc6)CC4)C5=O)CC3)c2c1 (stereo not drawn) | 638 | 8.81 | 8.7 | > 1000 | 4.16 |
| N#Cc1ccc2[nH]cc(CCCCN3CCN(c4cccc5c4C(=O)C(CC4CCN(Cc6ccccc6)CC4)C5)CC3)c2c1 (stereo not drawn) | 183 | – | 709 | 36 | – |
| N#Cc1ccc2[nH]cc(CCCCN3CCN(c4ccc(C(=O)CCC5CCN(CC6CCC6)CC5)cc4)CC3)c2c1 | 1320 | – | 249 | – | – |
| N#Cc1ccc2[nH]cc(CCN3CCN(c4ccc(C(=O)CCC5CCN(Cc6ccoc6)CC5)cc4)CC3)c2c1 | 2840 | – | 12.3 | – | – |
| Cc1cccc(CN2CCC(CCC(=O)c3ccc(N4CCN(CCCCc5c[nH]c6ccc(C#N)cc56)CC4)cc3)CC2)c1 | 13400 | – | 18.3 | – | – |
| CCN1CCC(CCC(=O)c2ccc(N3CCN(CCCCc4c[nH]c5ccc(C#N)cc45)CC3)cc2)CC1 | 2380 | – | 393 | 9 | – |
| N#Cc1ccc2[nH]cc(CCCCN3CCN(c4ccc(C(=O)CCC5CCN(Cc6ccoc6)CC5)cc4)CC3)c2c1 | 2730 | 35.7 | 8.95 | 19 | 4.68 |
| N#Cc1ccc2[nH]cc(CN3CCN(c4ccc(C(=O)CCC5CCN(Cc6ccoc6)CC5)cc4)CC3)c2c1 | 1400 | – | 10.6 | > 1000 | 5.56 |
| N#Cc1ccc2[nH]cc(CN3CCN(c4ccc5c(c4)CC(CC4CCN(Cc6ccccc6)CC4)C5=O)CC3)c2c1 (stereo not drawn) | 498 | 15.9 | 6.68 | > 1000 | 3.61 |
| N#Cc1ccc2[nH]cc(CCCCN3CCN(c4ccc(C(=O)CCC5CCN(Cc6cc[nH]c6)CC5)cc4)CC3)c2c1 | 2000 | 8.25 | 3.94 | 22.2 | 4.77 |
| COc1ccc2[nH]cc(CCCCN3CCN(c4ccc(C(=O)CCC5CCN(Cc6ccccc6)CC5)cc4)CC3)c2c1 | 687 | 76.5 | 2.42 | – | – |
| N#Cc1ccc2[nH]cc(CCCCN3CCN(c4ccc(C(=O)CCC5CCN(Cc6cccc(Br)c6)CC5)cc4)CC3)c2c1 | – | – | 91.5 | – | – |
| N#Cc1ccc2[nH]cc(CCCCN3CCN(c4ccc(C(=O)CCC5CCN(Cc6ccc7ccccc7c6)CC5)cc4)CC3)c2c1 | – | – | – | > 1000 | – |
| C#CCN1CCC(CCC(=O)c2ccc(N3CCN(CCCCc4c[nH]c5ccc(C#N)cc45)CC3)cc2)CC1 | – | – | 1140 | 29 | – |
| O=C(CCC1CCN(Cc2ccccc2)CC1)c1ccc(N2CCN(CCCCc3c[nH]c4ccc(Br)cc34)CC2)cc1 | 3840 | – | 7.75 | – | – |

| SMILES | IC50 [1] [nM] | IC50 [2] [nM] | IC50 [3] [nM] | EC50 [4] [nM] | Papp [5] [×10⁻⁶ cm/s] |
| --- | --- | --- | --- | --- | --- |
| N#Cc1ccc2[nH]cc(CCCN3CCN(c4ccc(C(=O)CCC5CCN(Cc6cccnc6)CC5)cc4)CC3)c2c1 | 2010 | – | 6.41 | – | – |
| N#Cc1ccc2[nH]cc(CCCN3CCN(c4ccc(C(=O)CCC5CCN(Cc6ccsc6)CC5)cc4)CC3)c2c1 | 1200 | 41.1 | 1.85 | – | – |
| N#Cc1ccc2[nH]cc(CCCCN3CCN(c4ccc(C(=O)CCC5CCN(Cc6cccc(C(F)(F)F)c6)CC5)cc4)CC3)c2c1 | – | – | 294 | 323 | – |
| COC(=O)c1ccc2[nH]cc(CCCCN3CCN(c4ccc(C(=O)CCC5CCN(Cc6ccccc6)CC5)cc4)CC3)c2c1 | 336 | > 1000 | 3.28 | – | – |
| CCCCN1CCC(CCC(=O)c2ccc(N3CCN(CCCCc4c[nH]c5ccc(C#N)cc45)CC3)cc2)CC1 | 1910 | – | 124 | – | – |
| C=CCN1CCC(CCC(=O)c2ccc(N3CCN(CCCCc4c[nH]c5ccc(C#N)cc45)CC3)cc2)CC1 | 1660 | – | 267 | 8.6 | – |
| N#Cc1ccc2[nH]cc(CCCCN3CCN(c4ccccc4C(=O)CCC4CCN(Cc5ccccc5)CC4)CC3)c2c1 | 351 | – | 2520 | – | – |
| O=C(CCC1CCN(Cc2ccccc2)CC1)c1ccc(N2CCN(CCCCc3c[nH]c4ccc(F)cc34)CC2)cc1 | 1470 | 114 | 2.43 | – | – |
| Cc1ccc2[nH]cc(CCCCN3CCN(c4ccc(C(=O)CCC5CCN(Cc6ccccc6)CC5)cc4)CC3)c2c1 | 1200 | > 1000 | 2.28 | 279 | 2.5 |
| N#Cc1ccc2[nH]cc(CCCCN3CCN(c4ccc(C(=O)CCC5CCN(Cc6ccsc6)CC5)cc4)CC3)c2c1 | 883 | 20.1 | 3.01 | 66.6 | 4.62 |
| COc1cccc(CN2CCC(CCC(=O)c3ccc(N4CCN(CCCCc5c[nH]c6ccc(C#N)cc56)CC4)cc3)CC2)c1 | – | – | 644 | – | – |
| N#Cc1ccc2[nH]cc(CCCCN3CCN(c4ccc(C(=O)CCC5CCN(CC6CCCC6)CC5)cc4)CC3)c2c1 | 1760 | – | 40.4 | 49.8 | – |
| N#Cc1ccc2[nH]cc(CCCCN3CCN(c4ccc(C(=O)CCC5CCN(Cc6cccnc6)CC5)cc4)CC3)c2c1 | 4590 | 16.2 | 7.98 | 22 | 4.43 |
| N#Cc1ccc2[nH]cc(CCCCN3CCN(c4ccc(C(=O)CCC5CCN(Cc6ccc(F)cc6)CC5)cc4)CC3)c2c1 | 2680 | – | 32.4 | 162 | – |
| N#Cc1ccc2[nH]cc(CCCCN3CCN(c4ccc(C(=O)CCC5CCN(CC6CC6)CC5)cc4)CC3)c2c1 | 743 | – | 366 | 9.1 | – |
| O=C(CCC1CCN(Cc2ccccc2)CC1)c1ccc(N2CCN(CCCCc3c[nH]c4ccc(Cl)cc34)CC2)cc1 | 2720 | 159 | 3.52 | – | – |
| N#Cc1ccc2[nH]cc(CCCCN3CCN(c4ccc5c(c4)C/C(=C\C4CCN(Cc6ccccc6)CC4)C5=O)CC3)c2c1 | 4950 | – | 30.7 | – | – |
| N#Cc1ccc2[nH]cc(CCCN3CCN(c4ccc(C(=O)CCC5CCN(Cc6ccoc6)CC5)cc4)CC3)c2c1 | 1340 | – | 9.61 | 29 | 5.17 |
| N#Cc1ccc2[nH]cc(CCCCN3CCN(c4ccc(C(=O)CCC5CCN(Cc6cccc(F)c6)CC5)cc4)CC3)c2c1 | 11300 | – | 10.9 | – | – |
| N#Cc1ccc2[nH]cc(CCCCN3CCN(c4ccc(C(=O)CCC5CCN(Cc6ccccc6F)CC5)cc4)CC3)c2c1 | 2510 | – | 12 | – | – |
| O=C(CCC1CCN(Cc2ccccc2)CC1)c1ccc(N2CCN(CCCCc3c[nH]c4cc(Cl)c(Cl)cc34)CC2)cc1 | 5810 | – | 11.2 | > 1000 | – |
| N#Cc1ccc2c(CCCCN3CCN(c4ccc(C(=O)CCC5CCN(Cc6ccccc6)CC5)cc4)CC3)c[nH]c2c1 | 2640 | – | 3.71 | > 1000 | – |
| N#Cc1ccc2[nH]cc(CCCN3CCN(c4ccc(C(=O)CCC5CCN(Cc6cc[nH]c6)CC5)cc4)CC3)c2c1 | 1130 | 14.9 | 3.27 | – | – |
